According to patent US8071588B2, “Dual pharmacophores—PDE4-muscarinic antagonistics” (Glaxo Group Limited, priority 2008, dated 2011):

Key:
[1] = test system: M1, M2 (w/Gqi5) and M3 ACh receptors stably expressed in CHO cells; assay: Calcium mobilization (FLIPR) IC50 determination for antagonists, inhibition of ACh induced muscarinic receptor activation; type: cell-based, human; conditions: EC80 ACh, active if IC50 of between 33 uM and 10 nM or less, listed examples found to be the most active
Description: Studies to determine the effectiveness of antagonists to cause blockade of functional intracellular calcium fluxes following agonist (ACh) treatment of cloned human receptors.
This system is used for characterizations of antagonist-receptor interactions using four distinct variations of the FLIPR methodology: (a) potency: IC50 determination, (b) potency: pA2 determination, (c) reversibility of antagonist-receptor interaction, or (d) confirmation of no functional agonist activity. Cell Source The human M1-M3 receptors are cloned and stably expressed in Chinese Hamster Ovary (CHO) cells. The M2 receptors are co-expressed with the chimeric G protein, Gqi5. […] The emitted fluorescence from all 96 wells is measured simultaneously using a cooled CCD camera. […] Experimental Protocols: Cell plating: A microtiter plate based calcium mobilization FLIPR (Fluorometric Imaging Plate Reader, Molecular Devices, Sunnyvale Calif., [Schroeder K S, Neagle, B D. FLIPR: a new instrument for accurate, high throughput optical screening. J. Biomol. Screen. 1996; 1:75.]) assay is used for the functional characterization of compounds against M1, M2 (w/Gqi5) and M3 ACh receptors stably expressed in CHO cells. […]

Human recombinant PDE4B = biological target: T1, Human recombinant PDE4B (Homo sapiens, UniProt Q07343); assay: Inhibition of PDE activity: luciferase-coupled PDE assay (PDE4B); type: biochemical; conditions: active if pIC50 of about 6 to 10.4 or greater against PDE4B; listed examples found to be the most active
T1 construct: made in house; host or cells: Saccharomyces cerevisiae strain GL62
Description: Human recombinant PDE4B, in particular the 2B splice variant thereof (HSPDE4B2B), is disclosed in WO 94/20079 and also in M. M. McLaughlin et al., “A low Km, rolipram-sensitive, cAMP-specific phosphodiesterase from human brain: cloning and expression of cDNA, biochemical characterization of recombinant protein, and tissue distribution of mRNA”, J. Biol. Chem., 1993, 268, 6470-6476. For example, in Example 1 of WO 94/20079, human recombinant PDE4B is described as being expressed in the PDE-deficient yeast Saccharomyces cerevisiae strain GL62. PDE4B expression is induced by the addition of 150 μM CuSO4.
For luminescence-coupled assay based screening the supernatant fractions of yeast cell lysates are subjected to Cibacron blue affinity chromatography, dialysis and desalting, to enrich for PDE4B and to remove components, e.g. ATP, able to interfere with the assay. Human recombinant PDE4D (HSPDE4D3A) is disclosed in P. A. Baecker et al., “Isolation of a cDNA encoding a human rolipram-sensitive cyclic AMP phosphodiesterase (PDE IVD)”, Gene, 1994, 138, 253-256. Expression of human PDE4D in yeast, and subsequent preparation of the recombinant protein for assay was as described for PDE4B.
Inhibition of PDE4B and PDE4D are measured using a luminescence-coupled assay system developed by Cambrex. This assay system couples the formation of AMP, derived from PDE4-catalyzed hydrolysis of cAMP, to the formation of ATP. The ATP is then used as a substrate for Luciferase and results in light as a signal output. […] The luminescence is then measured on a Viewlux imager (Perkin Elmer) using emission filters of 613/55 nm or 618/40 nm and a 5 second exposure. […] Curves were analyzed using ActivityBase and XL fit, and results are expressed as pIC50 values. […]
Curves were analyzed using ActivityBase and XLfit, and results are expressed as pIC50 values. […]

T1 sequence (Q07343 1-564 isoform Q07343-2): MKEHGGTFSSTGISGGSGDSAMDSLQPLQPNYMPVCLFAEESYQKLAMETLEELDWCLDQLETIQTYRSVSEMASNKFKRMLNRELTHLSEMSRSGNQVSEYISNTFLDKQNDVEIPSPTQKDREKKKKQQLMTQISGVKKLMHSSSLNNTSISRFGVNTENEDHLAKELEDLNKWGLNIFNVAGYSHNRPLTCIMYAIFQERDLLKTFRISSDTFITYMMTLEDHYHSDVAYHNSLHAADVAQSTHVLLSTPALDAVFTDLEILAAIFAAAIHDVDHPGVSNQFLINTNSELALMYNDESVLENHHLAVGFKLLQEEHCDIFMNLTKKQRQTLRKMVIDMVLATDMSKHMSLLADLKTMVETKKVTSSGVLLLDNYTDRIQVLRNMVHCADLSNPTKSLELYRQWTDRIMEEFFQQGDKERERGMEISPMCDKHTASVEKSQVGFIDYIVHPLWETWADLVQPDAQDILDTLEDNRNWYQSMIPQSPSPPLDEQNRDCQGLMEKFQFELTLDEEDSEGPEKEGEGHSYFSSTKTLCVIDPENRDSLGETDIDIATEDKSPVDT

SMILES	activity in the PDE4B assay (pIC50) (Human recombinant PDE4B)	activity in FLIPR antagonist IC50 assay (inhibition of ACh induced response) [1]
CCc1nc2c(cnn2CC)c(NC2CCOCC2)c1CNC(=O)CC(=O)NCc1cccc(-c2cccc(CN3CCCNCC3)c2)c1 [Example 180, N-{[1,6-Diethyl-4-(tetrahydro-2H-pyran-4-ylamino)-1H-pyrazolo[3,4-b]pyridin-5-yl]methyl}-N′-{[3′-(hexahydro-1H-1,4-diazepin-1-ylmethyl)-3-biphenylyl]methyl}propanediamide]	–	most active
CCc1nc2c(cnn2CC)c(NC2CCOCC2)c1CNC(=O)CCCC(=O)NCc1ccc(F)c(-c2cccc(CN3C[C@@H]4C[C@@H]3CN4Cc3ccccc3)c2)c1 [Example 193, N-{[1,6-diethyl-4-(tetrahydro-2H-pyran-4-ylamino)-1H-pyrazolo[3,4-b]pyridin-5-yl]methyl}-N′-[(6-fluoro-3′-{[(1R,4S)-5-(phenylmethyl)-2,5-diazabicyclo[2.2.1]hept-2-yl]methyl}-3-biphenylyl)methyl]pentanediamide]	–	most active

Further lines, with some results ahead:

activity in the PDE4B assay (pIC50) (Human recombinant PDE4B)	SMILES	activity in FLIPR antagonist IC50 assay (inhibition of ACh induced response) [1]
most active	CCc1nc2c(cnn2CC)c(NC2CCOCC2)c1CNC(=O)CC(=O)NCc1ccc(F)c(-c2cccc(CN3C[C@@H](C)N[C@@H](C)C3)c2)c1 [Example 217, N-{[1,6-diethyl-4-(tetrahydro-2H-pyran-4-ylamino)-1H-pyrazolo[3,4-b]pyridin-5-yl]methyl}-N′-[(3′-{[(3R,5S)-3,5-dimethyl-1-piperazinyl]methyl}-6-fluoro-3-biphenylyl)methyl]propanediamide]	–
most active	CCc1nc2c(cnn2CC)c(NC2CCOCC2)c1CNC(=O)CCC(=O)NCc1ccc(Cl)c(-c2cccc(CN3CCN[C@@H](C)C3)c2)c1 [Example 265, N-[(6-chloro-3′-{[(3S)-3-methyl-1-piperazinyl]methyl}-3-biphenylyl)methyl]-N′-{[1,6-diethyl-4-(tetrahydro-2H-pyran-4-ylamino)-1H-pyrazolo[3,4-b]pyridin-5-yl]methyl}butanediamide]	–
most active	CCc1nc2c(cnn2CC)c(NC2CCOCC2)c1CNC(=O)CCC(=O)NCc1ccc(F)c(-c2cccc(CN3CCN[C@H](C)C3)c2)c1 [Example 267, N-{[1,6-diethyl-4-(tetrahydro-2H-pyran-4-ylamino)-1H-pyrazolo[3,4-b]pyridin-5-yl]methyl}-N′-[(6-fluoro-3′-{[(3R)-3-methyl-1-piperazinyl]methyl}-3-biphenylyl)methyl]butanediamide]	–
